These results are taken from paper PMC3570588 (ChemMedChem, 2012).

Converted amounts (≈) assume the structure as drawn.

The target of one assay is S. aureus DHFR (Staphylococcus aureus, UniProt P0A017). The format is biochemical. To be noted: read-out: Ki, nM (SEM) S. aureus 29213; pH 7.0, 30 °C.
Another assay concerns B. anthracis Sterne. In kind it is cell-based, Bacillus anthracis.
For the next assay, the system named is S. aureus 29213. In kind it is cell-based, Staphylococcus aureus.
Another assay has as its target B. anthracis DHFR (Bacillus anthracis, UniProt Q81R22). In kind it is biochemical. To be noted: read-out: Ki, nM (SEM) B. anthracis Sterne; pH 7.0, 30 °C.

B. anthracis DHFR, sequence (Q81R22 1-162): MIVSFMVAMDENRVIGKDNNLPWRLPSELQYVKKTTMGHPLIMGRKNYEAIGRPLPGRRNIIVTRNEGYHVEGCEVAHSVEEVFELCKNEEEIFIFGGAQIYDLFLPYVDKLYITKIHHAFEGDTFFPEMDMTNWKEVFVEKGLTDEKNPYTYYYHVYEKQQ
S. aureus DHFR, sequence (P0A017 whole entry): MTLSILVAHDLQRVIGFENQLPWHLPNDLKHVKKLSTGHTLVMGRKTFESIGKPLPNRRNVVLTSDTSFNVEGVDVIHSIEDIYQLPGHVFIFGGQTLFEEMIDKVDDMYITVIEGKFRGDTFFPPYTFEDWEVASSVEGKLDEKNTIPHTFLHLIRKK

The term Ki denotes the dissociation constant of the complex between target and ligand, obtained from inhibition or displacement. Regarding `CCCC1c2ccccc2C=NN1C(=O)/C=C/c1cc(Cc2c(N)nc(N)nc2CC)cc(OC)c1OC` (racemic) [Compound 11b, (±)-(E)-3-5-[(2,4-Diamino-6-ethyl-5-pyrimidinyl)methyl]-2,3-dimethoxyphenyl}-1-(1-propyl-2(1H)-phthalazinyl)-2-propen-1-one], the Ki on S. aureus DHFR turned out to be 3.6 nM. Also, the “MIC, μg/mL B. anthracis Sterne” value in the assay on B. anthracis Sterne came to 4 µg/mL (≈ 7.77 µM). For the same molecule, the “MIC, μg/mL S. aureus 29213” value in the assay with S. aureus 29213 is 0.5 to 2 µg/mL.

Consider `CCCc1nc(N)nc(N)c1Cc1cc(/C=C/C(=O)N2N=Cc3ccccc3C2CCC)c(OC)c(OC)c1` (racemic) [Compound 11c, (±)-(E)-3-5-[(2,4-Diamino-6-propyl-5-pyrimidinyl)methyl]-2,3-dimethoxyphenyl}-1-(1-propyl-2(1H)-phthalazinyl)-2-propen-1-one], for which the Ki at S. aureus DHFR stood at 4 nM. In addition, the “MIC, μg/mL B. anthracis Sterne” value in the assay with B. anthracis Sterne worked out at 1 µg/mL (≈ 1.89 µM). Moreover, the “MIC, μg/mL S. aureus 29213” value in the assay with S. aureus 29213 fell in the range of 1 to 2 µg/mL.

Turning to `CCCC1c2ccccc2C=NN1C(=O)/C=C/c1cc(Cc2c(C)nc(N)nc2N)cc(OC)c1OC` (racemic) [Compound 11a, (±)-(E)-3-{5-[(2,4-Diamino-6-methyl-5-pyrimidinyl)methyl]-2,3-dimethoxyphenyl}-1-(1-propyl-2(1H)-phthalazinyl)-2-propen-1-one], the Ki at B. anthracis DHFR stood at 72.4 nM; on S. aureus DHFR, 4.5 nM. The “MIC, μg/mL B. anthracis Sterne” value in the assay on B. anthracis Sterne turned out to be 8 µg/mL (≈ 16 µM). Further, the “MIC, μg/mL S. aureus 29213” value in the assay on S. aureus 29213 was found to be 0.5 µg/mL (≈ 0.999 µM).

On to `COc1cc(Cc2c(C)nc(N)nc2N)cc(/C=C/C(=O)N2N=Cc3ccccc3C2C=C(C)C)c1OC` (racemic) [Compound 12a, (±)-(E)-3-{5-[(2,4-Diamino-6-methyl-5-pyrimidinyl)methyl]-2,3-dimethoxyphenyl}-1-(1-isobutenyl-2(1H)-phthalazinyl)-2-propen-1-one], for which the figures for the Ki at B. anthracis DHFR and at S. aureus DHFR were 14.3 nM and 3.4 nM, respectively. In addition, in the assay with B. anthracis Sterne, the “MIC, μg/mL B. anthracis Sterne” value came to 4 µg/mL (≈ 7.8 µM). The “MIC, μg/mL S. aureus 29213” value against S. aureus 29213 was 0.25 to 0.5 µg/mL.

In the case of `CCc1nc(N)nc(N)c1Cc1cc(/C=C/C(=O)N2N=Cc3ccccc3C2C=C(C)C)c(OC)c(OC)c1` (racemic) [Compound 12b, (±)-(E)-3-{5-[(2,4-Diamino-6-ethyl-5-pyrimidinyl)methyl]-2,3-dimethoxyphenyl}-1-(1-isobutenyl-2(1H)-phthalazinyl)-2-propen-1-one], the Ki on B. anthracis DHFR worked out at 25.4 nM; at S. aureus DHFR it was 2.9 nM. Moreover, in the assay on B. anthracis Sterne, the “MIC, μg/mL B. anthracis Sterne” value is 4 µg/mL (≈ 7.6 µM). Besides, in the assay on S. aureus 29213, the “MIC, μg/mL S. aureus 29213” value was 0.25 to 0.5 µg/mL.

Regarding `CCCc1nc(N)nc(N)c1Cc1cc(/C=C/C(=O)N2N=Cc3ccccc3C2C=C(C)C)c(OC)c(OC)c1` (racemic) [Compound 12c, (±)-(E)-3-{5-[(2,4-Diamino-6-propyl-5-pyrimidinyl)methyl]-2,3-dimethoxyphenyl}-1-(1-isobutenyl-2(1H)-phthalazinyl)-2-propen-1-one], the Ki at S. aureus DHFR came out at 4.1 nM. Also, the “MIC, μg/mL B. anthracis Sterne” value against B. anthracis Sterne was 2 µg/mL (≈ 3.7 µM). Further, the “MIC, μg/mL S. aureus 29213” value in the assay with S. aureus 29213 is 2 µg/mL (≈ 3.7 µM).
